In patent US10131652B2, “Pyrimidinyloxy benzene derivatives as herbicides” (E. I. DU PONT DE NEMOURS AND COMPANY, priority 2014, dated 2018):
Read-outs that look alike come from different tables or passages of the source.

Legend:
Format in all cases: in vivo
[1] = system: large (Lg) crabgrass (Digitaria sanguinalis); assay: Test B pre-/postemergence plant response; conditions: Digitaria sanguinalis, 240 h, read-out: Plant response rating, Crabgrass, Large; for pest or weed control at 125 g/ha: 125 g ai/ha; for pest or weed control at 500 g/ha: 500 g ai/ha; for pest or weed control at 1000 g/ha: 1000 g ai/ha
Procedure, shortened: (§1)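 Evaluation is visual, about 10 days after application, rating injury from 0 (none) to 100 (complete control) relative to untreated controls. Application was a preemergence soil spray on seeded pots or a postemergence spray on one- to two-leaf plants.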

[2] = system: morningglory (Ipomoea spp.); assay: Test B pre-/postemergence plant response; conditions: Ipomoea, 240 h, read-out: Plant response rating, Morningglory; for pest or weed control at 125 g/ha: 125 g ai/ha; for pest or weed control at 500 g/ha: 500 g ai/ha; for pest or weed control at 1000 g/ha: 1000 g ai/ha
Procedure, shortened: as §1

[3] = system: velvetleaf (Abutilon theophrasti); assay: Test B pre-/postemergence plant response; conditions: Abutilon theophrasti, 240 h, read-out: Plant response rating, Velvetleaf; for pest or weed control at 125 g/ha: 125 g ai/ha; for pest or weed control at 500 g/ha: 500 g ai/ha; for pest or weed control at 1000 g/ha: 1000 g ai/ha
Procedure, shortened: as §1

[4] = system: blackgrass (Alopecurus myosuroides); assay: Test B postemergence plant response
Procedure, shortened: (§2)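 Values are visual control ratings (0 to 100) recorded approximately 10 days after postemergence application to greenhouse-grown plants of 2 to 10 cm, one- to two-leaf stage, each judged against untreated controls.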

[5] = system: galium (catchweed bedstraw, Galium aparine); assay: Test B postemergence plant response
Procedure, shortened: as §2

[6] = post-emergence, postemergence, 0 to 100 scale, 0 no effect, 100 complete control
[7] = post-emergence, Postemergence, 0 to 100 scale (0 no effect, 100 complete control)
[8] = pre-emergence, Preemergence, 0 to 100 scale where 0 is no effect and 100 is complete control
[9] = pre-emergence, Preemergence, 0 to 100 scale (0 no effect, 100 complete control)
[10] = 31 g ai/ha, Postemergence, 0 to 100 scale, 0 no effect, 100 complete control
[11] = 125 g ai/ha, postemergence, 0 to 100 scale, 0 no effect, 100 complete control
[12] = Postemergence, 500 g ai/ha, 0 to 100 scale (0 no effect, 100 complete control)

| SMILES | pest or weed control at 125 g/ha [1, 6] | pest or weed control at 500 g/ha [1, 7] | pest or weed control at 125 g/ha [1, 8] | pest or weed control at 500 g/ha [1, 9] | pest or weed control at 125 g/ha [2, 6] | pest or weed control at 500 g/ha [2, 7] | pest or weed control at 125 g/ha [2, 8] | pest or weed control at 500 g/ha [2, 9] | pest or weed control at 125 g/ha [3, 6] | pest or weed control at 500 g/ha [3, 7] | pest or weed control at 125 g/ha [3, 8] | pest or weed control at 500 g/ha [3, 9] | pest or weed control at 500 g/ha [1, 8] | pest or weed control at 500 g/ha [2, 8] | pest or weed control at 500 g/ha [3, 8] | further results |
| --- | --- | --- | --- | --- | --- | --- | --- | --- | --- | --- | --- | --- | --- | --- | --- | --- |
| FC(F)(F)c1nccc(-c2ccccc2Oc2ncc(Br)cn2)n1 [Compound 21, 4-[2-[(5-bromo-2-pyrimidinyl)oxy]phenyl]-2-(trifluoromethyl)pyrimidine] | 0% | 30% | 60% | 100% | 20% | 90% | 0% | 0% | 20% | 40% | 0% | 20% |  |  |  |  |
| Cc1ccc(Oc2ncc(Cl)cn2)c(-c2ccc(C(F)(F)F)nc2)c1 [Compound 22, 5-chloro-2-[4-methyl-2-[6-(trifluoromethyl)-3-pyridinyl]phenoxy]pyrimidine] | 0% | 10% | 0% | 0% | 0% | 10% | 0% | 0% | 50% | 60% | 0% | 0% |  |  |  |  |
| Clc1ccc(-c2c(Cl)cccc2Oc2ncc(Cl)cn2)nc1 [Compound 23, 5-chloro-2-[3-chloro-2-(5-chloro-2-pyridinyl)phenoxy]pyrimidine] | 10% | 50% | 40% | 80% | 20% | 40% | 0% | 0% | 40% | 70% | 10% | 50% |  |  |  | pest or weed control at 1000 g/ha [1, 7]: 60%; pest or weed control at 1000 g/ha [1, 9]: 100%; pest or weed control at 1000 g/ha [2, 7]: 70%; pest or weed control at 1000 g/ha [2, 9]: 0%; pest or weed control at 1000 g/ha [3, 7]: 70%; pest or weed control at 1000 g/ha [3, 9]: 80% |
| Cc1ccc(Oc2ncc(Cl)cn2)c(-c2ccnc(C(F)(F)F)c2)c1 [Compound 24, 5-chloro-2-[4-methyl-2-[2-(trifluoromethyl)-4-pyridinyl]phenoxy]pyrimidine] | 80% | 90% | 100% | 100% | 50% | 100% | 0% | 0% | 40% | 70% | 0% | 0% |  |  |  |  |
| FC(F)(F)c1ccnc(-c2ccccc2Oc2ncc(Cl)cn2)c1 [Compound 25, 5-chloro-2-[2-[4-(trifluoromethyl)-2-pyridinyl]phenoxy]pyrimidine] | 10% | 50% | 50% |  | 10% | 70% | 0% |  | 20% | 80% | 10% |  | 100% | 10% | 100% |  |
| FC(F)(F)c1ccc(-c2ccccc2Oc2ncc(Cl)cn2)nc1 [Compound 27, 5-chloro-2-[2-[5-(trifluoromethyl)-2-pyridinyl]phenoxy]pyrimidine] | 20% | 90% | 80% |  | 10% | 50% | 0% |  | 70% | 100% | 20% |  | 100% | 0% | 60% |  |
| FCc1cc(-c2ccccc2Oc2ncc(Cl)cn2)no1 [Compound 32, 5-chloro-2-[2-[5-(fluoromethyl)-3-isoxazolyl]phenoxy]pyrimidine] | 60% | 90% | 100% |  | 70% | 90% | 0% |  | 90% | 100% | 90% |  | 100% | 30% | 100% |  |
| FC(F)(F)Oc1ccc(-c2ccccc2Oc2ncc(Cl)cn2)cc1 [Compound 42, 5-chloro-2-[[4′-(trifluoromethoxy)[1,1′-biphenyl]-2-yl]oxy]pyrimidine] | 30% | 50% | 50% |  | 20% | 60% | 0% |  | 100% | 100% | 50% |  | 90% | 0% | 70% |  |
| COc1cccc(Oc2ncc(Cl)cn2)c1-c1cc(C(F)(F)F)no1 [Compound 104] |  |  |  |  |  |  |  |  |  |  |  |  |  |  |  | Plant response rating, Blackgrass [4, 10]: 70; Plant response rating, Blackgrass [4, 11]: 100; Plant response rating, Galium [5, 10]: 90; Plant response rating, Galium [5, 11]: 100 |
| N#Cc1cccc(Oc2ncc(Cl)cn2)c1-c1cc(C(F)(F)F)ccn1 [Compound 158, 5-chloro-2-[3-cyano-2-[4-(trifluoromethyl)-2-pyridinyl]phenoxy]pyrimidine] |  |  |  |  |  |  |  |  |  |  |  |  |  |  |  | Plant response rating, Blackgrass [4, 11]: 30; Plant response rating, Blackgrass [4, 12]: 90; Plant response rating, Galium [5, 11]: 30; Plant response rating, Galium [5, 12]: 100 |
